From patent publication US9611278B2 (Merck Sharp & Dohme Corp., priority 2013, dated 2017)
Blank lines part the entries; values can stand above or below the compound they belong to.

Biological target: T1, sGC α1/β1 heterodimer stably expressed in CHO-K1 cells (CHO-K1/sGC) (Homo sapiens, UniProt Q02108+Q02153)
T1 construct: expressed in transfected cells
T1 sequence (Q02108 1-690): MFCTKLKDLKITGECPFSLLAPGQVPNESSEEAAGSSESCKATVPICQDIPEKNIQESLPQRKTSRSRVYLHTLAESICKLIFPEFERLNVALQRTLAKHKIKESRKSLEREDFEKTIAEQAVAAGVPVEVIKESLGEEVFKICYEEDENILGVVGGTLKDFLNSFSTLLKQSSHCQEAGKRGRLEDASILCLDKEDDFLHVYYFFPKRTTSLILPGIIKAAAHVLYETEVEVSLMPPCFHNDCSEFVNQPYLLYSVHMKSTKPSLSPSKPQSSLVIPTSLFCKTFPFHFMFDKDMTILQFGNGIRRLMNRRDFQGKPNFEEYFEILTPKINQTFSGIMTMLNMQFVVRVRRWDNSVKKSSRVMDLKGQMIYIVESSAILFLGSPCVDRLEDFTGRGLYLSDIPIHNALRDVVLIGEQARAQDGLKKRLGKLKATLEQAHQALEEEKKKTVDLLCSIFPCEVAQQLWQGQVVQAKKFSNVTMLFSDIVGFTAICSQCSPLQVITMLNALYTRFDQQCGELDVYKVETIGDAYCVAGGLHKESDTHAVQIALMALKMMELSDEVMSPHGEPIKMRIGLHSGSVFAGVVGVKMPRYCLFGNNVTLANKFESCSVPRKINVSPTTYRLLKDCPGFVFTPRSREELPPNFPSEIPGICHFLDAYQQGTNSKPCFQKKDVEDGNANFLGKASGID
T1 sequence (Q02153 1-619): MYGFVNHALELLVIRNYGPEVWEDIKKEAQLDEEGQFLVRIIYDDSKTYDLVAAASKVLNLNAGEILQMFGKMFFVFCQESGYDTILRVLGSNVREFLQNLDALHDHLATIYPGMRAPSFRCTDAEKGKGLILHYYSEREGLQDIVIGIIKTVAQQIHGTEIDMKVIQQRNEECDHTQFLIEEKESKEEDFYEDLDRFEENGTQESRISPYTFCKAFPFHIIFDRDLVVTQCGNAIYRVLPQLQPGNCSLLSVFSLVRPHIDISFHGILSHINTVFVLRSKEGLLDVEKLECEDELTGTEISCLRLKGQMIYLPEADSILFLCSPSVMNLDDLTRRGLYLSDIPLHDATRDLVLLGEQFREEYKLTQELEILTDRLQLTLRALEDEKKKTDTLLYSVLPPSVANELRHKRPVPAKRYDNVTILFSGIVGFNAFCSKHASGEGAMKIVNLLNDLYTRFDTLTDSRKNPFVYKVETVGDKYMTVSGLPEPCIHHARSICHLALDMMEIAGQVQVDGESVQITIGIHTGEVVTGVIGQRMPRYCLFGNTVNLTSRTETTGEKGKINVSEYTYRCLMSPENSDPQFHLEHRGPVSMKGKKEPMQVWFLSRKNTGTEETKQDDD
Assay: Cell-based sGC Functional Assay (CASA Assay)
Conditions: for Emax: CHO-K1, activation as percentage of maximum cGMP production of Compound A (set to 100%), read-out: % Act.; for EC50: inflection point of cGMP generation in CHO-K1/sGC cells, 4P fit, 1 hr at 37° C., read-out: IP
Text: sGC is a heme-containing enzyme that converts GTP to secondary messenger cGMP. Increases in cGMP levels affect several physiological processes including vasorelaxation through multiple downstream pathways. […] Heme-dependent activators (HDAs) preferentially activate sGC containing a ferrous heme group. To determine the effect of sGC activators on enzyme activity, the CASA assay was developed to monitor the generation of cGMP in a cell line that stably expresses the heterodimeric sGC protein.
A CHO-K1 cell line stably expressing the sGC α1/β1 heterodimer was generated using a standard transfection protocol. CHO-K1 cells were transfected with plasmids pIREShyghsGCα1 and pIRESneo-hsGCβ1 simultaneously using FUGENE reagent. Clones that stably express both subunits were selected with hygromycin and neomycin for ˜2 weeks. Clone #7 was chosen for the assay and was designated CHO-K1/sGC. CHO-K1/sGC cells were maintained in F-K12 medium containing 10% heat-inactivated Fetal Bovine Serum (FBS), 100 μg/mL penicillin/streptomycin, 0.5 mg/mL hygromycin and 0.25 mg/mL G418. The cells were then cryopreserved in LN2. On the day of the assay, cells thawed and resuspended in EBSS Assay Buffer (EAB, Sigma, E3024) supplemented with 5 mM MgCl2, 10 mM HEPES (4-(2-hydroxyethyl)piperazine-1-ethanesulfonic acid) and 0.05% BSA (bovine serum albumin) and cell density was then adjusted to 4×10^5/mL with EAB. IBMX (3-isobutyl-1-methylxanthin, 0.5 mM) was added to inhibit degradation of cGMP. Compounds were diluted from DMSO stock solutions and added to the assay at a final DMSO concentration of 2.5%. Cells were incubated with compounds in the presence and absence of 1 μM of Diethylenetriamine/nitric oxide adduct (DETA-NO; Sigma, 17018) for 1 hr at 37° C. At the end of the incubation period, the reaction was terminated and the cells were lysed with the detection reagents from Cisbio Kits. The level of intracellular cGMP was determined using an HTRF-based assay kit (CisBio, 62GM2PEC), which detects the displacement of a fluorescence labeled cGMP from its specific antibody. The cGMP produced by test compounds was directly compared to the maximum cGMP production (this value was set to equal 100% activation.) of the published sGC-HDA Compound A:
(Example 1 in WO 2010/065275, published Jun. 10, 2010). The test compounds' activity were then expressed as a percentage of Compound A, the standard in every experiment. This percent activation was calculated either in the presence or absence of DETA-NO which was then plotted. IP and maximum fold induction was derived using ADA analysis software for 4P fit.

SMILES: [2H]C([2H])([2H])n1ncc2c(-c3nc(N)c4c(n3)NC(=O)C4(C)c3ccccn3)nc(CCC(F)(F)C(F)(F)F)nc21 (stereo not shown) [Example 7, 4-Amino-5-methyl-2-(1-(methyl-d3)-6-(3,3,4,4,4-pentafluorobutyl)-1H-pyrazolo[3,4-d]pyrimidin-4-yl)-5-(pyridin-2-yl)-5,7-dihydro-6H-pyrrolo[2,3-d]pyrimidin-6-one]
Emax: 147%
EC50: 212 nM

SMILES: Cn1cc(C2(C)C(=O)Nc3nc(-c4nc(CCC(F)(F)C(F)(F)F)nc5c4cnn5C)nc(N)c32)cn1 (stereo not shown) [Example 23, 4-Amino-5-methyl-5-(1-methyl-1H-pyrazol-4-yl)-2-(1-methyl-6-(3,3,4,4,4-pentafluorobutyl)-1H-pyrazolo[3,4-d]pyrimidin-4-yl)-5,7-dihydro-6H-pyrrolo[2,3-d]pyrimidin-6-one]
Emax: 88%
EC50: 435 nM

SMILES: Cn1ncc2c(-c3nc(N)c4c(n3)NC(=O)C4(C)c3ccc(F)cn3)nc(CCC3CCC3)nc21 (stereo not shown) [Example 30, 4-Amino-2-(6-(2-cyclobutylethyl)-1-methyl-1H-pyrazolo[3,4-d]pyrimidin-4-yl)-5-(5-fluoropyridin-2-yl)-5-methyl-5,7-dihydro-6H-pyrrolo[2,3-d]pyrimidin-6-one]
Emax: 98%
EC50: 35 nM

SMILES: CC(C)c1nnc(C2(C)C(=O)Nc3nc(-c4nc(CCC(F)(F)C(F)(F)F)nc5c4cnn5C)nc(N)c32)o1 (stereo not shown) [Example 50, 4-Amino-5-(5-isopropyl-1,3,4-oxadiazol-2-yl)-5-methyl-2-(1-methyl-6-(3,3,4,4,4-pentafluorobutyl)-1H-pyrazolo[3,4-d]pyrimidin-4-yl)-5,7-dihydro-6H-pyrrolo[2,3-d]pyrimidin-6-one]
Emax: 176%
EC50: 84 nM

SMILES: Cc1nc(C2(C)C(=O)Nc3nc(-c4nc(CCC(F)(F)C(F)(F)F)nc5c4cnn5C)nc(N)c32)no1 (stereo not shown) [Example 20, 4-Amino-5-methyl-5-(5-methyl-1,2,4-oxadiazol-3-yl)-2-(1-methyl-6-(3,3,4,4,4-pentafluorobutyl)-1H-pyrazolo[3,4-d]pyrimidin-4-yl)-5,7-dihydro-6H-pyrrolo[2,3-d]pyrimidin-6-one]
Emax: 132%
EC50: 103 nM

SMILES: CCn1ncc2c(-c3nc(N)c4c(n3)NC(=O)C4(c3nnc(C4CC4)o3)C3CC3)nc(CCC(F)(F)C(F)(F)F)nc21 (stereo not shown) [Example 45, 4-Amino-5-cyclopropyl-5-(5-cyclopropyl-1,3,4-oxadiazol-2-yl)-2-(1-ethyl-6-(3,3,4,4,4-pentafluorobutyl)-1H-pyrazolo[3,4-d]pyrimidin-4-yl)-5,7-dihydro-6H-pyrrolo[2,3-d]pyrimidin-6-one]
Emax: 101%
EC50: 738 nM

SMILES: Cn1ncc2c(-c3nc(N)c4c(n3)NC(=O)C4(C)c3c[nH]nn3)nc(CCC(F)(F)C(F)(F)F)nc21 (single isomer, unassigned) [Example 60, 4-Amino-S-methyl-2-(1-methyl-6-(3,3,4,4,4-pentafluorobutyl)-1H-pyrazolo[3,4-d]pyrimidin-4-yl)-5-(1H-1,2,3-triazol-4-yl)-5,7-dihydro-6H-pyrrolo[2,3-d]pyrimidin-6-one]
Emax: 136%
EC50: 933 nM

The remaining compounds from weak to strong by EC50, led by results:

Emax: 126%
EC50: 891 nM
SMILES: Cn1ncc2c(-c3nc(N)c4c(n3)NC(=O)C4(c3ncco3)C3CC3)nc(CCC(F)(F)C(F)(F)F)nc21 (stereo not shown) [Example 28, 4-Amino-5-cyclopropyl-2-(1-methyl-6-(3,3,4,4,4-pentafluorobutyl)-1H-pyrazolo[3,4-d]pyrimidin-4-yl)-5-(oxazol-2-yl)-5,7-dihydro-6H-pyrrolo[2,3-d]pyrimidin-6-one]

Emax: 133%
EC50: 811 nM
SMILES: CCC1(c2cn(C(C)C)nn2)C(=O)Nc2nc(-c3nc(CCC(F)(F)C(F)(F)F)nc4c3cnn4C)nc(N)c21 (single isomer, unassigned) [Example 68, 4-Amino-5-ethyl-5-(1-isopropyl-1H-1,2,3-triazol-4-yl)-2-(1-methyl-6-(3,3,4,4,4-pentafluorobutyl)-1H-pyrazolo[3,4-d]pyrimidin-4-yl)-5,7-dihydro-6H-pyrrolo[2,3-d]pyrimidin-6-one]

Emax: 99%
EC50: 800 nM
SMILES: Cn1cc(C2(C3CC3)C(=O)Nc3nc(-c4nc(CCCC(F)(F)F)nc5c4cnn5C)nc(N)c32)nn1 (single isomer, unassigned) [Example 62, 4-Amino-5-cyclopropyl-5-(1-methyl-1H-1,2,3-triazol-4-yl)-2-(1-methyl-6-(4,4,4-trifluorobutyl)-1H-pyrazolo[3,4-d]pyrimidin-4-yl)-5,7-dihydro-6H-pyrrolo[2,3-d]pyrimidin-6-one]

Emax: 131%
EC50: 709 nM
SMILES: [2H]C([2H])([2H])n1ncc2c(-c3nc(N)c4c(n3)NC(=O)C4(C)c3cncc(OC)c3)nc(CCC(F)(F)C(F)(F)F)nc21 (stereo not shown) [Example 14, 4-Amino-5-(5-methoxypyridin-3-yl)-5-methyl-2-(1-(methyl-d3)-6-(3,3,4,4,4-pentafluorobutyl)-1H-pyrazolo[3,4-d]pyrimidin-4-yl)-5,7-dihydro-6H-pyrrolo[2,3-d]pyrimidin-6-one]

Emax: 169%
EC50: 491 nM
SMILES: CCn1ncc(C2(C)C(=O)Nc3nc(-c4nc(CCC(F)(F)C(F)(F)F)nc5c4cnn5C)nc(N)c32)n1 (stereo not shown) [Example 79, 4-Amino-5-(2-ethyl-2H-1,2,3-triazol-4-yl)-5-methyl-2-(1-methyl-6-(3,3,4,4,4-pentafluorobutyl)-1H-pyrazolo[3,4-d]pyrimidin-4-yl)-5,7-dihydro-6H-pyrrolo[2,3-d]pyrimidin-6-one]

Emax: 86%
EC50: 378 nM
SMILES: Cc1nnc(C2(C)C(=O)Nc3nc(-c4nc(CCC(F)(F)C(F)(F)F)nc5c4ccn5C)nc(N)c32)o1 (stereo not shown) [Example 87, 4-Amino-5,7′-dimethyl-5-(5-methyl-1,3,4-oxadiazol-2-yl)-2′-(3,3,4,4,4-pentafluorobutyl)-5,7-dihydro-6H,7′H-[2,4′-bipyrrolo[2,3-d]pyrimidin]-6-one]

% Act. (activation as percentage of maximum cGMP production of Compound A (set to 100%)): 68%
EC50: 292 nM
SMILES: [2H]C([2H])([2H])n1ncc2c(-c3nc(N)c4c(n3)NC(=O)C4(c3nnc(C)o3)C3CC3)nc(CCC(F)(F)C(F)(F)F)nc21 (single isomer, unassigned) [Example 40B, 4-Amino-5-cyclopropyl-5-(5-methyl-1,3,4-oxadiazol-2-yl)-2-(1-(methyl-d3)-6-(3,3,4,4,4-pentafluorobutyl)-1H-pyrazolo[3,4-d]pyrimidin-4-yl)-5,7-dihydro-6H-pyrrolo[2,3-d]pyrimidin-6-one]
